Measured values taken from patent US9156811B2 (priority 2008, dated 2015).
pIC50: −log10 of the molar value. Read-outs that look alike come from different tables or passages of the source. Each block holds one compound with its values, some of them ahead of it.

Columns and labels:
NCI-H1299 = assay: In-vitro antiproliferative assay, NCI-H1299; assay type: cell-based; conditions: Homo sapiens, read-out: IC50 NCI-H1299
MDA-MB-231 = assay: In-vitro antiproliferative assay, MDA-MB-231; assay type: cell-based, human; conditions: read-out: IC50 MDA-MB-231
OE19 = assay: In-vitro antiproliferative assay, OE19; assay type: cell-based; conditions: Homo sapiens, read-out: IC50 OE19
[1] = tested on: Trypanosome (T. brucei brucei); assay: In-vitro antitrypanosomal efficacy assay (cell growth, resazurin); assay type: cell-based
OE21 = assay: In-vitro antiproliferative assay, OE21; assay type: cell-based; conditions: Homo sapiens, read-out: IC50 OE21
human NMT-1 = human NMT-1 (Homo sapiens (Human), UniProt P30419); assay: NMT enzyme inhibition scintillation proximity assay, human NMT-1; assay type: biochemical; conditions: HuNMT-1
Sequence of human NMT-1 (P30419 whole entry): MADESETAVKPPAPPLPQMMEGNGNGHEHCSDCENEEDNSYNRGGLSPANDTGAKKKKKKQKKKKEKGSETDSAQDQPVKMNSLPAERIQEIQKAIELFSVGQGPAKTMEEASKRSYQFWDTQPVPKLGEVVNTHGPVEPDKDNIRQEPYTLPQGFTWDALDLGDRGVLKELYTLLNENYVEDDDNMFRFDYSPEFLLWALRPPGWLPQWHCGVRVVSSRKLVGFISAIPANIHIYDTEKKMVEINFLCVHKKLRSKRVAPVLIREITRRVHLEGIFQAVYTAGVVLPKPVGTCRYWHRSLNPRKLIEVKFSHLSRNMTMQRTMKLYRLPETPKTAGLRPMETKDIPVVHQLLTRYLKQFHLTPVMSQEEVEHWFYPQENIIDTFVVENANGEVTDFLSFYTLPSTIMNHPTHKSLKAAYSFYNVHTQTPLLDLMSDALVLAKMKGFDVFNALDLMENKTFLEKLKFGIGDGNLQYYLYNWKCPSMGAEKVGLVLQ

[2] = target: A. fumigatus N-myristoyl transferase (Aspergillus fumigatus (strain ATCC MYA-4609 / CBS 101355 / FGSC A1100 / Af293) (Neosartorya fumigata), UniProt Q9UVX3); assay: biochemical; assay type: biochemical; conditions: read-out: IC50 (μM) NMT Enzyme (AfNMT)
[3] = target: T. brucei N-myristoyl transferase (Trypanosoma brucei brucei (strain 927/4 GUTat10.1), UniProt Q388H8); assay: biochemical; assay type: biochemical; conditions: read-out: IC50 (μM) NMT Enzyme
Sequence of T. brucei N-myristoyl transferase (Q388H8 1-446): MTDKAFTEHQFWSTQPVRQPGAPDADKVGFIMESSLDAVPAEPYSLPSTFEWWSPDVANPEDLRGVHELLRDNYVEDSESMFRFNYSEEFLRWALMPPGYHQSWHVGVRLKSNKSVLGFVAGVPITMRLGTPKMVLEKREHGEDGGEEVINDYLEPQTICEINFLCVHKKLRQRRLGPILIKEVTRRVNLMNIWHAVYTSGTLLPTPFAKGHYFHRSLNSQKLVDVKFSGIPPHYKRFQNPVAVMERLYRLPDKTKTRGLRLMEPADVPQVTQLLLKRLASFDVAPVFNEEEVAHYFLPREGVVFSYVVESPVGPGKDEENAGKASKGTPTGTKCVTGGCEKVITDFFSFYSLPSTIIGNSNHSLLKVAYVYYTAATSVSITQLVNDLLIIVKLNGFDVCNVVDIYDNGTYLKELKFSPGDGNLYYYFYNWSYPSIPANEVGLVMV

[4] = CNS penetration: drug concentration in blood and brain after i.v. dosing; assay type: in vivo; conditions: iv, female NMRI mouse, t = 5 min; for Kp at 5 min: brain / whole blood; for concentration at 5 min: average of three animals
HT29 = assay: In-vitro antiproliferative assay, HT29; assay type: cell-based, human; conditions: Table 4, 72 h, Alamar blue, read-out: IC50 HT-29
HCT116 = assay: In-vitro antiproliferative assay, HCT116; assay type: cell-based, human; conditions: read-out: IC50 HCT116
[5] = value printed without enzyme tag in the NMT Enzyme column (taken as T. brucei NMT)
[6] = value with no enzyme tag in the cell, taken as T. brucei NMT
[7] = Homo sapiens, MDA-MB-231, Table 4, 72 h, Alamar blue
[8] = Homo sapiens, HCT-116, Table 4, 72 h, Alamar blue
[9] = brain, single i.v. dose 2.0 mg/kg, read-out: Conc (ng/ml in brain)
[10] = whole blood, single i.v. dose 2.0 mg/kg, read-out: Conc (ng/ml in blood)
[11] = T. brucei brucei, blood stream form, variant 221

- pIC50 (NCI-H1299; NCI-H1299, 72 h): 5.43
- pIC50 (MDA-MB-231; Homo sapiens, MDA-MB-231, 72 h): 6.05
SMILES: Cc1nn(C)c(C)c1N[S+](=O)([O-])c1c(Cl)cc(-c2cccc(C3CCNCC3)c2)cc1Cl
- pIC50 (OE19; OE19, 72 h): 5.34
- ED50 (μM) T. brucei ([1]; T. brucei cell growth): 0.02 µM
- pIC50 (OE21; OE21, 72 h): 5.92

- IC50 (human NMT-1): 2.3 µM
- IC50 ([2]; AfNMT): 4.8 µM
- IC50 [3, 5]: 0.32 µM
SMILES: COc1cc2c(cc1OC)CN(c1ccc([S+](=O)([O-])Nc3c(C)nn(C)c3C)cn1)CC2 [DDD73476]
- ED50 (μM) T. brucei ([1]; T. brucei cell growth): 1.8 µM

SMILES: Cc1nn(C)c(C)c1N(C)[S+](=O)([O-])c1c(Cl)cc(Br)cc1Cl [DDD73490, 4-Bromo-2,6-dichloro-N-methyl-N-(1,3,5-trimethyl-1H-pyrazol-4-yl)-benzenesulfonamide]
- IC50 (human NMT-1): 4 µM
- IC50 ([2]; AfNMT): 3.9 µM
- Kp at 5 min ([4]; single i.v. dose 0.33 mg/kg): 6
- concentration at 5 min ([4]; brain, single i.v. dose 0.33 mg/kg, read-out: Conc (ng/ml in brain)): 314 ng/mL
- concentration at 5 min ([4]; whole blood, single i.v. dose 0.33 mg/kg, read-out: Conc (ng/ml in blood)): 52 ng/mL
- ED50 (μM) T. brucei ([1]; T. brucei cell growth): 2.8 µM
- IC50 [3, 5]: 0.36 µM

SMILES: Cc1nn(C)c(C)c1NS(=O)(=O)c1ccc(N2CCc3cccc(N)c3C2)nc1 [DDD73498, 6-(8-Amino-3,4-dihydro-1H-isoquinolin-2-yl)-pyridine-3-sulfonic acid (1,3,5-trimethyl-1H-pyrazol-4-yl)-amide]
- IC50 (human NMT-1): 4.3 µM
- IC50 ([2]; AfNMT): 14.7 µM
- ED50 (μM) T. brucei ([1]; T. brucei cell growth): 2.6 µM
- IC50 [3, 5]: 0.32 µM

- pIC50 (NCI-H1299; NCI-H1299, Table 3, 72 h, Alamar blue): 5.97
- pIC50 (MDA-MB-231; Homo sapiens, MDA-MB-231, Table 3, 72 h, Alamar blue): 6.19
SMILES: Cc1nn(C)c(C)c1N[S+](=O)([O-])c1ccc(-c2cccc(CN3CCN(C)CC3)c2)cc1 [DDD86212, 3′-(4-Methyl-piperazin-1-ylmethyl)-biphenyl-4-sulfonic acid (1,3,6-trimethyl-1H-pyrazol-4-yl)-amide]
- pIC50 (OE19; OE19, Table 3, 72 h, Alamar blue): 5.36
- ED50 (μM) T. brucei ([1]; T. brucei cell growth): 0.03 µM
- pIC50 (OE21; OE21, Table 3, 72 h, Alamar blue): 5.86

SMILES: Cc1c(N[S+](=O)([O-])c2c(Cl)cc(-c3ccnc(N4CCNCC4)c3)cc2Cl)c(CC(C)C)nn1C [DDD86481, 2,6-Dichloro-N-(3-isobutyl-1,5-dimethyl-1H-pyrazol-4-yl)-4-(2-piperazin-1-yl-pyridin-4-yl)-benzenesulfonamide]
- pIC50 (NCI-H1299; NCI-H1299, 72 h): 7.02
- pIC50 (MDA-MB-231; Homo sapiens, MDA-MB-231, 72 h): 7.33
- pIC50 (OE19; OE19, 72 h): 6.88
- pIC50 (OE21; OE21, 72 h): 7.24

SMILES: Cc1nn(C)c(C)c1N[S+](=O)([O-])c1ccc(-c2cccc(Cn3ccnc3)c2)cc1 [DDD88006, 3′-imidazol-1-ylmethyl-biphenyl-4-sulfonic acid (1,3,6-trimethyl-1H-pyrazol-4-yl)-amide]
- IC50 [2]: 4.2 µM
- ED50 (μM) T. brucei ([1]; T. brucei cell growth): 3.9 µM
- IC50 [3, 6]: 0.35 µM

SMILES: CCN(CC)Cc1cccc(-c2ccc([S+](=O)([O-])N(C)c3c(C)nn(C)c3C)cc2)c1 [DDD88195, 3′-Diethylaminomethyl-biphenyl-4-sulfonic acid methyl-(1,3,5-trimethyl-1H-pyrazol-4-yl)-amide]
- Kp at 5 min ([4]; single i.v. dose 1.0 mg/kg): 0.8
- concentration at 5 min ([4]; brain, single i.v. dose 1.0 mg/kg, read-out: Conc (ng/ml in brain)): 93 ng/mL
- concentration at 5 min ([4]; whole blood, single i.v. dose 1.0 mg/kg, read-out: Conc (ng/ml in blood)): 116 ng/mL
- ED50 (μM) T. brucei ([1]; T. brucei cell growth): 0.51 µM
- IC50 [3, 6]: 0.05 µM

- pIC50 (HT29; Homo sapiens, HT-29): 6.75
- pIC50 (MDA-MB-231; [7]): 6.35
- pIC50 (HCT116; [8]): 6.20
SMILES: Cc1nn(C)c(C)c1N[S+](=O)([O-])c1c(Cl)cc(-c2cccc(CN3CCN(C)CC3)c2)cc1Cl [DDD88558]
- ED50 (μM) T. brucei ([1]; T. brucei cell growth): 0.009 µM

SMILES: CCN(CC)Cc1cccc(-c2ccc([S+](=O)([O-])Nc3c(CC(C)C)nn(C)c3C)cc2)c1 [DDD88638]
- Kp at 5 min ([4]; single i.v. dose 2.0 mg/kg): 1.35
- concentration at 5 min [4, 9]: 378 ng/mL
- concentration at 5 min [4, 10]: 281 ng/mL
- ED50 (μM) T. brucei ([1]; T. brucei cell growth): 0.084 µM
- IC50 [3, 6]: 0.009 µM

- pIC50 (HT29): 6.55
- pIC50 (MDA-MB-231; Table 4, 72 h, Alamar blue): 6.27
- pIC50 (HCT116; Table 4, 72 h, Alamar blue): 6.04
- IC50 [3, 6]: 0.004 µM
SMILES: Cc1c(N[S+](=O)([O-])c2c(Cl)cc(CCCC3CCNCC3)cc2Cl)c(CC(C)C)nn1C [DDD90086]
- ED50 (μM) T. brucei ([1]; T. brucei cell growth): 0.006 µM

SMILES: Cc1c(N[S+](=O)([O-])c2ccc(-c3cccc(CN(C)C)c3)cc2)c(CC(C)C)nn1C [DDD99742]
- Kp at 5 min ([4]; single i.v. dose 2.0 mg/kg): 0.66
- concentration at 5 min [4, 9]: 422 ng/mL
- concentration at 5 min [4, 10]: 642 ng/mL
- ED50 (μM) T. brucei ([1]; T. brucei cell growth): 0.019 µM

SMILES: Cc1nn(C)c(C)c1N(C)[S+](=O)([O-])c1ccc(CCCCCCn2ccnc2)cc1 [DDD99754]
- IC50 (human NMT-1): 2.1 µM
- IC50 [2]: > 1 µM
- ED50 (μM) T. brucei ([1]; T. brucei cell growth): >1 µM
- IC50 [3, 6]: 0.105 µM

SMILES: Cc1c(NS(=O)(=O)c2ccc(CCCC3CCN(C)CC3)cc2)c(CC(C)C)nn1C [DDD99837, N-(3-isobutyl-1,5-dimethyl-1H-pyrazol-4-yl)-4-(3-(1-methylpiperidin-4-yl)propyl)benzenesulfonamide]
- Kp at 5 min ([4]; single i.v. dose 3.0 mg/kg): 0.26
- concentration at 5 min ([4]; brain, single i.v. dose 3.0 mg/kg, read-out: Conc (ng/ml in brain)): 99 ng/mL
- concentration at 5 min ([4]; whole blood, single i.v. dose 3.0 mg/kg, read-out: Conc (ng/ml in blood)): 388 ng/mL
- ED50 (μM) T. brucei [1, 11]: 0.036 µM

SMILES: Cc1nn(C)c(C)c1N(C(F)F)[S+](=O)([O-])c1c(Cl)cc(CCCC2CCN(C)CC2)cc1Cl [DDD100097, 2,6-dichloro-N-(difluoromethyl)-4-(3-(1-methylpiperidin-4-yl)propyl)-N-(1,3,5-trimethyl-1H-pyrazol-4-yl)benzenesulfonamide]
- Kp at 5 min ([4]; single i.v. dose 2.0 mg/kg): 1.5
- concentration at 5 min [4, 9]: 335 ng/mL
- concentration at 5 min [4, 10]: 224 ng/mL
- ED50 (μM) T. brucei [1, 11]: 0.001 µM

SMILES: Cc1nn(C)c(C)c1N(C(F)F)[S+](=O)([O-])c1c(Cl)cc(CCCCC2CCN(C)CC2)cc1Cl [DDD100144, 2,6-dichloro-N-(difluoromethyl)-4-(4-(1-methylpiperidin-4-yl)butyl)-N-(1,3,5-trimethyl-1H-pyrazol-4-yl)benzenesulfonamide]
- pIC50 (MDA-MB-231; Homo sapiens, MDA-MB-231, 72 h): 6.66
- pIC50 (HCT116; Homo sapiens, HCT-116, 72 h): 6.55
- concentration at 5 min [4, 9]: 545 ng/mL
- concentration at 5 min [4, 10]: 413 ng/mL

SMILES: Cc1nn(C)c(C)c1N(CC(F)(F)F)[S+](=O)([O-])c1c(Cl)cc(CCCC2CCN(C)CC2)cc1Cl [DDD100153, 2,6-dichloro-4-(3-(1-methylpiperidin-4-yl)propyl)-N-(2,2,2-trifluoroethyl)-N-(1,3,5-trimethyl-1H-pyrazol-4-yl)benzenesulfonamide]
- Kp at 5 min ([4]; single i.v. dose 2.0 mg/kg): 0.64
- concentration at 5 min [4, 9]: 171 ng/mL
- concentration at 5 min [4, 10]: 269 ng/mL
- ED50 (μM) T. brucei [1, 11]: 0.023 µM

- pIC50 (MDA-MB-231; [7]): 6.60
- pIC50 (HCT116; [8]): 6.38
SMILES: Cc1nn(C)c(C)c1N(C(F)F)[S+](=O)([O-])c1c(Cl)cc(CCCOC2CCN(C)CC2)cc1Cl [DDD100169]
